Test results as given in US20070254947A1, “Composition for external use” (ROHTO PHARMACEUTICAL CO., LTD., priority 2006, published 2007).

Assays:
[1] = J. Act. Oxyg. Free Rad. 3:531-54; cited from earlier work
[2] = tested on: Normal human dermal fibroblasts (NHDF-AD)
Description: Normal human dermal fibroblasts (NHDF-AD: product of Kurabo Industries, Ltd.) were inoculated onto a 24-well plate (1.0×10^4 cells/well), and incubated for four days in 1 ml of DMEM containing 10% FBS(vol/vol). Subsequently, the supernatant of the wells was replaced with 1 ml of fresh DMEM containing 10% FBS(vol/vol), and 5 μl of ethanol solution containing a predetermined concentration of tocopherol or 5 μl of ethanol was added to the concentrations shown in Tables 1 and 2, and […] of 0.045% hydroquinone solution was added, followed by incubation for 24 hours. Then, the supernatant of the wells were removed by replacement with 1 ml of medium, and the number of cells that survived was determined by WST-1 assay.

[3] = approximate ratio, reportedly; cited from earlier work

Row | Structure (SMILES) | antioxidant activity against oils and fats (rank) [1] | survival rate, times higher than that of Control 1 [2] | ratio of biological activities of α-, β-, γ-, and δ-tocopherols [3] | hydroquinone-cytotoxicity-reducing activity (rank among tocopherols) [2] | survival rate compared with Control 1 [2]
1 | Cc1c(C)c2c(c(C)c1O)CC[C@@](C)(CCC[C@H](C)CCC[C@H](C)CCCC(C)C)O2 [α-tocopherol] | lowest | more than 1.3 times | approximately 100 | – | –
2 | Cc1cc(O)cc2c1O[C@](C)(CCC[C@H](C)CCC[C@H](C)CCCC(C)C)CC2 [δ-tocopherol] | highest | – | ~0.1 | highest | remarkably higher survival rate
3 | Cc1cc(O)c(C)c2c1O[C@](C)(CCC[C@H](C)CCC[C@H](C)CCCC(C)C)CC2 [β-tocopherol] | – | – | ~24 | – | –
4 | Cc1c(O)cc2c(c1C)O[C@](C)(CCC[C@H](C)CCC[C@H](C)CCCC(C)C)CC2 [γ-tocopherol] | – | more than 2.3 times | ~4 | second highest | –
